# Laboratory results published in patent publication US7812170B2, “Insecticides” (Syngenta Crop Protection, Inc., priority 2004, dated 2010).
# Tests used:
# [1] = system: Heliothis virescens; test: Activity against Heliothis virescens (foliar application); type: in vivo; conditions: 144 h, 400 ppm active ingredient, sprayed young soya plants, 1st instar caterpillars, 6 days, read-out: percentage reduction in the population and in the feeding damage (% activity)
# Procedure: (§1) Activity Against Heliothis virescens (Foliar Application) Young soya plants are sprayed with an aqueous emulsion spray mixture comprising 400 ppm of active ingredient and, after the spray coating has dried on, populated with 10 caterpillars (1st instar) of Heliothis virescens and introduced into a plastic container. 6 days later, the percentage reduction in the population and in the feeding damage (% activity) are determined by comparing the number of dead caterpillars and the feeding damage between the treated and untreated plants.
# [2] = system: Spodoptera littoralis; test: Activity against Spodoptera littoralis (sprayed soya plants); type: in vivo; conditions: 72 h, 400 ppm active ingredient, sprayed young soya plants, 1st instar caterpillars, 3 days, read-out: percentage reduction in the population and in the feeding damage (% activity)
# Procedure: as §1, with “Spodoptera littoralis” for “Heliothis virescens (Foliar Application)”, “Spodoptera littoralis” for “Heliothis virescens”, “3” for “6”
# [3] = system: Diabrotica balteata; test: Activity against Diabrotica balteata (sprayed maize seedlings); type: in vivo; conditions: 144 h, 400 ppm active ingredient, 2nd instar larvae, 6 days, read-out: percentage reduction in the population (% activity)
# Procedure: Activity Against Diabrotica balteata Maize seedlings are sprayed with an aqueous emulsion spray mixture comprising 400 ppm of active ingredient and, after the spray coating has dried on, populated with 10 larvae (2nd instar) of Diabrotica balteata and introduced into a plastic container. 6 days later, the percentage reduction in the population (% activity) is determined by comparing the number of dead larvae between the treated and untreated plants.
# [4] = system: Plutella xylostella; test: Activity against Plutella xylostella (sprayed cabbage plants); type: in vivo; conditions: 72 h, 400 ppm active ingredient, sprayed young cabbage plants, 3rd instar caterpillars, 3 days, read-out: percentage reduction in the population and in the feeding damage (% activity)
# Procedure: as §1, with “Plutella xylostella” for “Heliothis virescens (Foliar Application)”, “cabbage” for “soya”, “(3rd” for “(1st”, “Plutella xylostella” for “Heliothis virescens”, “3” for “6”
Compound,melting point [°C],inhibition at 400 ppm [1] [%],inhibition at 400 ppm [2] [%],inhibition at 400 ppm [3] [%],inhibition at 400 ppm [4] [%]
CNC(=O)c1cc2c(c(Br)c1NC(=O)c1cc(C(F)(F)F)nn1-c1ncccc1Cl)OC(C)(C)O2,274 to 276,–,–,–,–
CNC(=O)c1cc2c(c(C)c1NC(=O)c1cc(C(F)(F)F)nn1-c1ncccc1Cl)OC(C)(C)O2,242 to 244,–,–,–,–
Cc1c(NC(=O)c2cc(C(F)(F)F)nn2-c2ncccc2Cl)c(C(=O)NC(C)C)cc2c1OC(C)(C)O2,256 to 258,–,–,–,–
CNC(=O)c1cc2c(c(Cl)c1NC(=O)c1cc(C(F)(F)F)nn1-c1ncccc1Cl)OC(F)(F)O2,265 to 267,–,–,–,–
CC(C)NC(=O)c1cc2ccccc2c(Cl)c1NC(=O)c1cc(C(F)(F)F)nn1-c1ncccc1Cl [Compound T1.3],–,> 80,> 80,> 80,> 80
CNC(=O)c1cc2cc(Br)ccc2c(Cl)c1NC(=O)c1cc(C(F)(F)F)nn1-c1ncccc1Cl [Compound T2.1],–,> 80,> 80,–,> 80
CCNC(=O)c1cc2cc(Br)ccc2c(Cl)c1NC(=O)c1cc(C(F)(F)F)nn1-c1ncccc1Cl [Compound T2.2],–,> 80,> 80,–,> 80
CNC(=O)c1cc2cc(C#N)ccc2c(Cl)c1NC(=O)c1cc(C(F)(F)F)nn1-c1ncccc1Cl [Compound T5.1],–,> 80,> 80,–,> 80
CC(C)NC(=O)c1cc2cc(C#N)ccc2c(Cl)c1NC(=O)c1cc(C(F)(F)F)nn1-c1ncccc1Cl [Compound T5.3],–,> 80,> 80,–,> 80
CC(C)NC(=O)c1cc2ccccc2c(Br)c1NC(=O)c1cc(C(F)(F)F)nn1-c1ncccc1Cl [Compound T7.3],–,> 80,> 80,> 80,> 80
CNC(=O)c1cc2ccccc2c(C)c1NC(=O)c1cc(C(F)(F)F)nn1-c1ncccc1Cl [Compound T8.1],–,> 80,> 80,–,> 80
CNC(=O)c1cc2cc(Br)ccc2c(Br)c1NC(=O)c1cc(C(F)(F)F)nn1-c1ncccc1Cl [Compound T9.1],–,> 80,> 80,–,> 80
CCNC(=O)c1cc2cc(Br)ccc2c(Br)c1NC(=O)c1cc(C(F)(F)F)nn1-c1ncccc1Cl [Compound T9.2],–,> 80,> 80,–,> 80
CC(C)NC(=O)c1cc2cc(Br)ccc2c(Br)c1NC(=O)c1cc(C(F)(F)F)nn1-c1ncccc1Cl [Compound T9.3],–,> 80,> 80,–,> 80
CNC(=O)c1cc2cc(Cl)ccc2c(Cl)c1NC(=O)c1cc(C(F)(F)F)nn1-c1ncccc1Cl [Compound T20.1],–,> 80,> 80,–,> 80
CC(C)NC(=O)c1cc2cc(Cl)ccc2c(Cl)c1NC(=O)c1cc(C(F)(F)F)nn1-c1ncccc1Cl [Compound T20.3],–,> 80,> 80,–,> 80
CC(C)NC(=O)c1cc(Cl)c2ccccc2c1NC(=O)c1cc(C(F)(F)F)nn1-c1ncccc1Cl [Compound T22.3],–,–,–,–,> 80
CNC(=O)c1c(NC(=O)c2cc(C(F)(F)F)nn2-c2ncccc2Cl)sc2c1CCCC2 [Compound T46.1],261 to 263,–,–,–,–
CC(C)NC(=O)c1c(NC(=O)c2cc(C(F)(F)F)nn2-c2ncccc2Cl)sc2c1CCCC2 [Compound T46.3],246 to 248,–,–,–,–
CNC(=O)c1cc2c(nc1NC(=O)c1cc(C(F)(F)F)nn1-c1ncccc1Cl)CCCC2 [Compound T50.1],145 to 147,–,–,–,–
CC(C)NC(=O)c1cc2c(nc1NC(=O)c1cc(C(F)(F)F)nn1-c1ncccc1Cl)CCCC2 [Compound T50.3],143 to 145,–,–,–,–
CNC(=O)c1c(NC(=O)c2cc(C(F)(F)F)nn2-c2ncccc2Cl)nc2c(c1-c1ccccc1)CCCC2 [Compound T51.1],165 to 168,–,–,–,–
CC(C)NC(=O)c1c(NC(=O)c2cc(C(F)(F)F)nn2-c2ncccc2Cl)nc2c(c1-c1ccccc1)CCCC2 [Compound T51.3],146 to 148,–,–,–,–

Compound,melting point [°C],inhibition at 400 ppm [1] [%],inhibition at 400 ppm [2] [%],inhibition at 400 ppm [3] [%],inhibition at 400 ppm [4] [%]
CNC(=O)c1c(NC(=O)c2cc(C(F)(F)F)nn2-c2ncccc2Cl)nc2c(c1-c1ccccc1)CCCCC2 [Compound T52.1],211 to 213,–,–,–,–
CC(C)NC(=O)c1c(NC(=O)c2cc(C(F)(F)F)nn2-c2ncccc2Cl)nc2c(c1-c1ccccc1)CCCCC2 [Compound T52.3],269 to 270,–,–,–,–
CNC(=O)c1c(NC(=O)c2cc(C(F)(F)F)nn2-c2ncccc2Cl)nc2c(c1-c1cccc(Cl)c1)CCCC2 [Compound T53.1],183 to 185,–,–,–,–
CC(C)NC(=O)c1c(NC(=O)c2cc(C(F)(F)F)nn2-c2ncccc2Cl)nc2c(c1-c1cccc(Cl)c1)CCCC2 [Compound T53.3],259 to 260,–,–,–,–
CNC(=O)[C@H]1Cc2ccccc2C[C@H]1NC(=O)c1cc(C(F)(F)F)nn1-c1ncccc1Cl [Compound T72.1],226 to 228,–,–,–,–
CC(C)NC(=O)[C@H]1Cc2ccccc2C[C@H]1NC(=O)c1cc(C(F)(F)F)nn1-c1ncccc1Cl [Compound T72.3],229 to 232,–,–,–,–
O=C(N[C@@H]1Cc2ccccc2C[C@@H]1C(=O)NC1CC1)c1cc(C(F)(F)F)nn1-c1ncccc1Cl [Compound T72.207],230 to 233,–,–,–,–
CSCC(C)(C)NC(=O)[C@H]1Cc2ccccc2C[C@H]1NC(=O)c1cc(C(F)(F)F)nn1-c1ncccc1Cl [Compound T72.273],184 to 186,–,–,–,–
CNC(=O)[C@H]1Cc2ccccc2C(C)[C@H]1NC(=O)c1cc(C(F)(F)F)nn1-c1ncccc1Cl (stereo partly drawn) [Compound T73.1],205 to 207,–,–,–,–
CC(C)NC(=O)[C@H]1Cc2ccccc2C(C)[C@H]1NC(=O)c1cc(C(F)(F)F)nn1-c1ncccc1Cl (stereo partly drawn) [Compound T73.3],223 to 225,–,–,–,–
CC1c2ccccc2C[C@H](C(=O)NC2CC2)[C@@H]1NC(=O)c1cc(C(F)(F)F)nn1-c1ncccc1Cl (stereo partly drawn) [Compound T73.207],192 to 194,–,–,–,–
CNC(=O)c1c(NC(=O)c2cc(C(F)(F)F)nn2-c2ncccc2Cl)sc2c1CCC(OC)C2 (stereo not drawn) [Compound T74.1],133 to 135,–,–,–,–
COC1CCc2c(sc(NC(=O)c3cc(C(F)(F)F)nn3-c3ncccc3Cl)c2C(=O)NC(C)C)C1 (stereo not drawn) [Compound T74.3],206 to 207,–,–,–,–
CNC(=O)c1nc2ccccc2c(C)c1NC(=O)c1cc(C(F)(F)F)nn1-c1ncccc1Cl [Compound T75.1],–,> 80,> 80,–,> 80
Cc1c(NC(=O)c2cc(C(F)(F)F)nn2-c2ncccc2Cl)c(C(=O)NC(C)C)nc2ccccc12 [Compound T75.3],–,> 80,> 80,–,> 80
CNC(=O)c1cc2c([N+](=O)[O-])cccc2c(Cl)c1NC(=O)c1cc(C(F)(F)F)nn1-c1ncccc1Cl [Compound T76.1],–,> 80,> 80,–,> 80
CC(C)NC(=O)c1cc2c([N+](=O)[O-])cccc2c(Cl)c1NC(=O)c1cc(C(F)(F)F)nn1-c1ncccc1Cl [Compound T76.3],–,> 80,> 80,–,> 80
CNC(=O)c1cc2ccccc2c([N+](=O)[O-])c1NC(=O)c1cc(C(F)(F)F)nn1-c1ncccc1Cl [Compound T78.1],–,–,–,–,> 80
CNC(=O)c1sc2cccc(Cl)c2c1NC(=O)c1cc(C(F)(F)F)nn1-c1ncccc1Cl [Compound T79.1],–,> 80,–,–,> 80
CNC(=O)c1c(NC(=O)c2cc(C(F)(F)F)nn2-c2ncccc2Cl)c(C)nc2ccccc12 [Compound T81.1],–,> 80,–,–,> 80
CNC(=O)c1sc2nsc(C)c2c1NC(=O)c1cc(C(F)(F)F)nn1-c1ncccc1Cl [Compound T88.1],264 to 266,–,–,–,–
Cc1snc2sc(C(=O)NC(C)C)c(NC(=O)c3cc(C(F)(F)F)nn3-c3ncccc3Cl)c12 [Compound T88.3],261 to 263,–,–,–,–
